Measured values reported in patent publication US20240158446A1, “CYCLIC COMPOUND HAVING SELECTIVE INHIBITORY ACTION ON KRAS OVER HRAS AND NRAS” (CHUGAI SEIYAKU KABUSHIKI KAISHA, priority 2021, published 2024).

Legend:
[1] = biological target: GDP-bound HRAS wild-type protein (Homo sapiens, UniProt P01112); assay: Binding to HRAS by surface plasmon resonance (SPR), Single Cycle Kinetics; conditions: SPR; GDP-bound HRAS wild-type protein vs GDP-bound KRAS wild-type protein; KD ratio class
[2] = biological target: GDP-bound KRAS wild-type protein (Homo sapiens, UniProt P01116); assay: Binding to KRAS by surface plasmon resonance (SPR), Single Cycle Kinetics; conditions: SPR, Single Cycle Kinetics, 1:1 binding model; GDP-bound KRAS wild-type protein; read-out: KRAS KD
[3] = biological target: GDP-bound NRAS wild-type protein (Homo sapiens, UniProt P01111); assay: Binding to NRAS by surface plasmon resonance (SPR), Single Cycle Kinetics; conditions: SPR; GDP-bound NRAS wild-type protein vs GDP-bound KRAS wild-type protein; KD ratio class
[4] = test system: human lung cancer strain NCI-H441;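 note: cell proliferation inhibition after four days measured by CellTiter-Glo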

Sequence of GDP-bound NRAS wild-type protein (P01111 whole entry): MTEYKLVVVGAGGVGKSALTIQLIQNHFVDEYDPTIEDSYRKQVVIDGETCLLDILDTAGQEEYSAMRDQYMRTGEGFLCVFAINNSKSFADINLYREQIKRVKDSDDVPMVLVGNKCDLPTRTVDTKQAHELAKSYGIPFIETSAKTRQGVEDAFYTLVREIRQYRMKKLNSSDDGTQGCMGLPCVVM
Sequence of GDP-bound HRAS wild-type protein (P01112 whole entry): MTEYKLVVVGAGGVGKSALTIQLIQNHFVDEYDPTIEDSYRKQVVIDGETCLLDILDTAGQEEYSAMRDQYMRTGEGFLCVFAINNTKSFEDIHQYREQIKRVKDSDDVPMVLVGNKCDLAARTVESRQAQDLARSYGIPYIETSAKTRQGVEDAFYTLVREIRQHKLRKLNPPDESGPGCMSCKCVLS
Sequence of GDP-bound KRAS wild-type protein (P01116 whole entry): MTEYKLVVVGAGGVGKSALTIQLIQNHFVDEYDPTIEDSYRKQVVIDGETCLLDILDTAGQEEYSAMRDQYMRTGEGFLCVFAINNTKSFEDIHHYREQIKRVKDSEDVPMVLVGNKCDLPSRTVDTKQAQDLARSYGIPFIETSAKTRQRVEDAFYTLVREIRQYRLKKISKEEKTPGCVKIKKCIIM

Row | Kd [2] [nM] | IC50 [4] [nM] | Structure (SMILES) | HRAS/KRAS (ratio of KD value for HRAS to KD value for KRAS) [1] | NRAS/KRAS (ratio of KD value for NRAS to KD value for KRAS) [3]
1 | 0.14 | 33.2 | CCO[C@@H]1C[C@H]2C(=O)NC3(CCC3)C(=O)N(C)[C@@H](C3CCCC3)C(=O)N(C)[C@H](C(=O)N(C)C)CC(=O)N(C)[C@@H](CC)C(=O)N[C@@H]([C@@H](C)CC)C(=O)N(C)CC(=O)N(C)[C@H]3C/C=C\CCN(C3=O)[C@@H](CC3CCCCC3)C(=O)N(C)CC(=O)N[C@@H](CCc3cc(F)c(C(F)(F)F)c(F)c3)C(=O)N2C1 [PP1466, (2S,8S,12R,14S,20S,23S,27S,30S,36S,38Z)-2-(cyclohexylmethyl)-20-cyclopentyl-8-[2-[3,5-difluoro-4-(trifluoromethyl)phenyl]ethyl]-12-ethoxy-27-ethyl-N,N,4,19,22,26,32,35-octamethyl-30-[(1S)-1-methylpropyl]-3,6,9,15,18,21,25,28,31,34,42-undecaoxo-spiro[1,4,7,10,16,19,22,26,29,32,35-undecazatricyclo[34.5.1.0^10,14]dotetracont-38-ene-17,1′-cyclobutane]-23-carboxamide] | A (a compound having 10 or more and less than 20 is denoted as A) | A (a compound having 10 or more and less than 20 is denoted as A)
2 | 0.12 | 11.2 | CCO[C@@H]1C[C@H]2C(=O)NC3(CCC3)C(=O)N(C)[C@@H](C3CCCC3)C(=O)N(C)[C@H](C(=O)N(C)C)CC(=O)N(C)[C@@H](CC(C)C)C(=O)N[C@@H]([C@@H](C)CC)C(=O)N(C)CC(=O)N(C)[C@H]3C/C=C\CCN(C3=O)[C@@H](CC3CCCCC3)C(=O)N(C)CC(=O)N[C@@H](CCc3cc(F)c(C(F)(F)F)c(F)c3)C(=O)N2C1 [PP1467, (2S,8S,12R,14S,20S,23S,27S,30S,36S,38Z)-2-(cyclohexylmethyl)-20-cyclopentyl-8-[2-[3,5-difluoro-4-(trifluoromethyl)phenyl]ethyl]-12-ethoxy-27-isobutyl-N,N,4,19,22,26,32,35-octamethyl-30-[(1S)-1-methylpropyl]-3,6,9,15,18,21,25,28,31,34,42-undecaoxo-spiro[1,4,7,10,16,19,22,26,29,32,35-undecazatricyclo[34.5.1.0^10,14]dotetracont-38-ene-17,1′-cyclobutane]-23-carboxamide] | A (a compound having 10 or more and less than 20 is denoted as A) | A (a compound having 10 or more and less than 20 is denoted as A)
3 | 0.12 | 9.5 | C=CC[C@H]1C(=O)N[C@@H]([C@@H](C)CC)C(=O)N(C)CC(=O)N(C)[C@H]2C/C=C\CCN(C2=O)[C@@H](CC2CCCCC2)C(=O)N(C)CC(=O)N[C@@H](CCc2cc(F)c(C(F)(F)F)c(F)c2)C(=O)N2C[C@H](OCC)C[C@H]2C(=O)NC2(CCC2)C(=O)N(C)[C@@H](C2CCCC2)C(=O)N(C)[C@H](C(=O)N(C)C)CC(=O)N1C [PP1468, (2S,8S,12R,14S,20S,23S,27S,30S,36S,38Z)-27-allyl-2-(cyclohexylmethyl)-20-cyclopentyl-8-[2-[3,5-difluoro-4-(trifluoromethyl)phenyl]ethyl]-12-ethoxy-N,N,4,19,22,26,32,35-octamethyl-30-[(1S)-1-methylpropyl]-3,6,9,15,18,21,25,28,31,34,42-undecaoxo-spiro[1,4,7,10,16,19,22,26,29,32,35-undecazatricyclo[34.5.1.0^10,14]dotetracont-38-ene-17,1′-cyclobutane]-23-carboxamide] | A (a compound having 10 or more and less than 20 is denoted as A) | A (a compound having 10 or more and less than 20 is denoted as A)
4 | 0.18 | 22.2 | CCO[C@@H]1C[C@H]2C(=O)NC3(CCC3)C(=O)N(C)[C@@H](C3CCCC3)C(=O)N(C)[C@H](C(=O)N(C)C)CC(=O)N(C)[C@@H](CC3CCC3)C(=O)N[C@@H]([C@@H](C)CC)C(=O)N(C)CC(=O)N(C)[C@H]3C/C=C\CCN(C3=O)[C@@H](CC3CCCCC3)C(=O)N(C)CC(=O)N[C@@H](CCc3cc(F)c(C(F)(F)F)c(F)c3)C(=O)N2C1 [PP1469] | A (a compound having 10 or more and less than 20 is denoted as A) | A (a compound having 10 or more and less than 20 is denoted as A)
5 | 0.22 | 111 | CCO[C@@H]1C[C@H]2C(=O)NC3(CCCC3)C(=O)N(C)[C@@H](C3CCCC3)C(=O)N(C)[C@H](C(=O)N(C)C)CC(=O)N(C)[C@@H](C)C(=O)N[C@@H]([C@@H](C)CC)C(=O)N(C)CC(=O)N(C)[C@H]3C/C=C\CCN(C3=O)[C@@H](CC3CCCCC3)C(=O)N(C)CC(=O)N[C@@H](CCc3cc(F)c(C(F)(F)F)c(F)c3)C(=O)N2C1 [PP1470] | A (a compound having 10 or more and less than 20 is denoted as A) | A (a compound having 10 or more and less than 20 is denoted as A)
6 | 0.25 | 48.2 | CC[C@H](C)[C@@H]1NC(=O)[C@H](CC)N(C)C(=O)C[C@@H](C(=O)N(C)C)N(C)C(=O)[C@H](C2CCCC2)N(C)C(=O)C2(CCC2)NC(=O)[C@@H]2C[C@H](C)CN2C(=O)[C@H](CCc2cc(F)c(C(F)(F)F)c(F)c2)NC(=O)CN(C)C(=O)[C@H](CC2CCCCC2)N2CC/C=C\C[C@@H](C2=O)N(C)C(=O)CN(C)C1=O [PP1471] | A (a compound having 10 or more and less than 20 is denoted as A) | A (a compound having 10 or more and less than 20 is denoted as A)
7 | 0.14 | 37.1 | CCO[C@@H]1C[C@H]2C(=O)NC3(CCC3)C(=O)N(C)[C@@H](C3CCCC3)C(=O)N(C)[C@H](C(=O)N(C)C)CC(=O)N(C)[C@@H](CC3CCCC3)C(=O)N[C@@H]([C@@H](C)CC)C(=O)N(C)CC(=O)N(C)[C@H]3C/C=C\CCN(C3=O)[C@@H](CC3CCCCC3)C(=O)N(C)CC(=O)N[C@@H](CCc3cc(F)c(C(F)(F)F)c(F)c3)C(=O)N2C1 [PP1472, (2S,8S,12R,14S,20S,23S,27S,30S,36S,38Z)-2-(cyclohexylmethyl)-20-cyclopentyl-27-(cyclopentylmethyl)-8-[2-[3,5-difluoro-4-(trifluoromethyl)phenyl]ethyl]-12-ethoxy-N,N,4,19,22,26,32,35-octamethyl-30-[(1S)-1-methylpropyl]-3,6,9,15,18,21,25,28,31,34,42-undecaoxo-spiro[1,4,7,10,16,19,22,26,29,32,35-undecazatricyclo[34.5.1.0^10,14]dotetracont-38-ene-17,1′-cyclobutane]-23-carboxamide] | A (a compound having 10 or more and less than 20 is denoted as A) | A (a compound having 10 or more and less than 20 is denoted as A)
8 | 0.19 | 36.6 | CCO[C@@H]1C[C@H]2C(=O)NC3(CCCC3)C(=O)N(C)[C@@H](C3CCCC3)C(=O)N(C)[C@H](C(=O)N(C)C)CC(=O)N(C)[C@@H](CC(C)C)C(=O)N[C@@H]([C@@H](C)CC)C(=O)N(C)CC(=O)N(C)[C@H]3C/C=C\CCN(C3=O)[C@@H](CC3CCCCC3)C(=O)N(C)CC(=O)N[C@@H](CCc3cc(F)c(C(F)(F)F)c(F)c3)C(=O)N2C1 [PP1473] | A (a compound having 10 or more and less than 20 is denoted as A) | A (a compound having 10 or more and less than 20 is denoted as A)
9 | 0.23 | 48.2 | CCO[C@@H]1C[C@H]2C(=O)NC3(CCC3)C(=O)N(C)[C@@H](C3CCCC3)C(=O)N(C)[C@H](C(=O)N(C)C)CC(=O)N(C)[C@@H](CC(C)(C)C)C(=O)N[C@@H]([C@@H](C)CC)C(=O)N(C)CC(=O)N(C)[C@H]3C/C=C\CCN(C3=O)[C@@H](CC3CCCCC3)C(=O)N(C)CC(=O)N[C@@H](CCc3cc(F)c(C(F)(F)F)c(F)c3)C(=O)N2C1 [PP1474] | A (a compound having 10 or more and less than 20 is denoted as A) | A (a compound having 10 or more and less than 20 is denoted as A)
10 | 0.55 | 48.9 | CC[C@H](C)[C@@H]1NC(=O)[C@H](CC)N(C)C(=O)C[C@@H](C(=O)N(C)C)N(C)C(=O)[C@H](C2CCCC2)N(C)C(=O)C2(CCC2)NC(=O)[C@@H]2CCCN2C(=O)[C@H](CCc2cc(F)c(C(F)(F)F)c(F)c2)NC(=O)CN(C)C(=O)[C@H](CC2CCCCC2)N2CC/C=C\C[C@@H](C2=O)N(C)C(=O)CN(C)C1=O [PP1475] | A (a compound having 10 or more and less than 20 is denoted as A) | A (a compound having 10 or more and less than 20 is denoted as A)
11 | 1 | 216 | CCO[C@@H]1C[C@H]2C(=O)NC3(CCC3)C(=O)N(C)[C@@H](C3CCCC3)C(=O)N(C)[C@H](C(=O)N(C)C)CC(=O)N(C)[C@@H](CC3CC3)C(=O)N[C@@H]([C@@H](C)CC)C(=O)N(C)CC(=O)N(C)[C@H]3C/C=C\CCN(C3=O)[C@@H](Cc3ccc(F)cc3C)C(=O)N(C)CC(=O)N[C@@H](CCc3ccc(Cl)c(Cl)c3)C(=O)N2C1 [PP1476] | B (a compound having 3 or more and less than 10 is denoted as B) | A (a compound having 10 or more and less than 20 is denoted as A)
12 | 1.4 | 309 | CCO[C@@H]1C[C@H]2C(=O)NC3(CCC3)C(=O)N(C)[C@@H](C3CCCC3)C(=O)N(C)[C@H](C(=O)N(C)C)CC(=O)N(C)[C@@H](CC3CC3)C(=O)N[C@@H]([C@@H](C)CC)C(=O)N(C)CC(=O)N(C)[C@H]3C/C=C\CCN(C3=O)[C@@H](Cc3ccc(F)cc3C)C(=O)N(C)CC(=O)N[C@@H](CCc3cc(F)c(Cl)c(F)c3)C(=O)N2C1 [PP1477] | B (a compound having 3 or more and less than 10 is denoted as B) | A (a compound having 10 or more and less than 20 is denoted as A)
